Patent US20240165123A1, “USE OF A COMPOUND CONTAINING A TRICYCLIC HETEROARYL GROUP” (CSPC Zhongqi Pharmaceutical Technology (Shijiazhuang) Co., …, priority 2021, published 2024)

Columns and labels:
JAK1 = JAK1 (Homo sapiens, UniProt P23458); assay: Kinase activity inhibition test (Mobility Shift Assay); assay type: biochemical; conditions: 66 μM ATP
Experimental: (§1) • 1. kinases: SYK, JAK1, JAK2, JAK3 and TYK2 • 2. test method
(§2) Protein kinase activity was determined by Mobility Shift Assay. Compound (I) was dissolved in DMSO and prepared into concentration gradients in 100% DMSO. By the dilution with the kinase buffer, 5 μL of Compound (I) (10% DMSO) was added to a 384-well plate at 5 folds of the final reaction concentration. 10 μL of 2.5-fold enzyme solution was added and the incubation was performed at room temperature for 10 min, followed by the addition of 10 μL of 2.5-fold substrate solution. The incubation was performed at 28° C. for 60 min and […] of stop solution was added to the 384-well reaction plate to terminate the reaction (100 mM HEPES, pH 7.5, 0.015% Brij-35, 0.2% Coating Reagent #3, 50 mM EDTA). The conversion data was copied from the Caliper EZ Reader, and converted into the inhibition data, % inhibition=(max-conversion)/(max-min)×100%, wherein, “min” is the conversion for the control sample well where the reaction was performed without adding the enzyme; and “max” is the conversion for the control well where DMSO was added. The curve was drawn with the compound concentration and the inhibition rate as the horizontal and vertical is coordinates, and the IC50 value was calculated by fitting with XLFit excel add-in version 5.4.0.8. Fitting equation:
(§3) Y=Bottom+(Top-Bottom)/(1+(IC50/X)^HillSlope).

JAK2 = JAK2 (Homo sapiens, UniProt O60674); assay: as above; assay type: biochemical; conditions: 6.5 μM ATP
Experimental: as §1, §2, §3

JAK3 = biological target: T1, JAK3 (Homo sapiens, UniProt P52333); assay: as above; assay type: biochemical; conditions: 4.3 μM ATP
T1 sequence (P52333 1-1124): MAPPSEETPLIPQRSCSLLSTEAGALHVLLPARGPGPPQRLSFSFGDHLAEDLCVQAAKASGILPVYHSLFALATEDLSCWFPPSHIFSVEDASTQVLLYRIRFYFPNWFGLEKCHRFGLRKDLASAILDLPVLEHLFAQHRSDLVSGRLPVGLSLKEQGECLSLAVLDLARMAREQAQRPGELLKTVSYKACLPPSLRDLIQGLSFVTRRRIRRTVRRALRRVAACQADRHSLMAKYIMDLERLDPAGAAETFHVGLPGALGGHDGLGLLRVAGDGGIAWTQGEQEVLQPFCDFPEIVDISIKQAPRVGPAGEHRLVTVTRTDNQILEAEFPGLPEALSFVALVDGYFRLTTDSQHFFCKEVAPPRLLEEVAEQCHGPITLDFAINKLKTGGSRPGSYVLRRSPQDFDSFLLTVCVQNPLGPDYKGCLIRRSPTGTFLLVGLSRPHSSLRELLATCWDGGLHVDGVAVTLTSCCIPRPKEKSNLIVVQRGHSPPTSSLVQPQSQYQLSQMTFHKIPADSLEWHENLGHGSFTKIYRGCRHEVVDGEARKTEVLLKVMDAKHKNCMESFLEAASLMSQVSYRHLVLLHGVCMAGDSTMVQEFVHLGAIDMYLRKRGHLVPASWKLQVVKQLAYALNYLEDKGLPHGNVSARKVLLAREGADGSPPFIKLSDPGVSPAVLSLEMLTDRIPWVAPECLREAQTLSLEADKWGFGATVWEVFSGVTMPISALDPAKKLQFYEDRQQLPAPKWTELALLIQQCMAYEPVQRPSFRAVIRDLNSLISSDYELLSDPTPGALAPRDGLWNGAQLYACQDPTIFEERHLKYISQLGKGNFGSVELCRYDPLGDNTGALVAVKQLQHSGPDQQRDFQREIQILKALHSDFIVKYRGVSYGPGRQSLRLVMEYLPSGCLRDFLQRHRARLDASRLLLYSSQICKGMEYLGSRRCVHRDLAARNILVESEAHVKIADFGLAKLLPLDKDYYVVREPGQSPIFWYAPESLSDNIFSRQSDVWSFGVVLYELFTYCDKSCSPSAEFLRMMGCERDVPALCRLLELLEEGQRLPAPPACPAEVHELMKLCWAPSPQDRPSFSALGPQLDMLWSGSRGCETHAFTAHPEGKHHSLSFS
Experimental: as §1, §2, §3

SYK = SYK (Homo sapiens, UniProt P43405); assay: as above; assay type: biochemical; conditions: 2 μM ATP
Experimental: as §1, §2, §3

TYK2 = TYK2 (Homo sapiens, UniProt P29597); assay: as above; assay type: biochemical; conditions: 16 μM ATP
Experimental: as §1, §2, §3

[1] = Phase I clinical trial, single ascending dose; assay type: in vivo; conditions: human; single ascending dose up to 240 mg
Experimental: Compound (I) had no effect on the central nervous system, respiratory system and cardiovascular system of animals, and was expected to have no side effects on the central nervous system, respiratory system and cardiovascular system of human. The NOAEL of single administration to rats was 2000 mg/kg, the MTD of administration to Beagle dogs was 500 mg/kg/time (1000 mg/kg/day), the NOAEL of repeated administration to rats for 28 days was 10 mg/kg/time (20 mg/kg/day), and the NOAEL of repeated administration to Beagle dogs for 28 days was 3 mg/kg/time (6 mg/kg/ day). […] The effective dose for rats was 3 mg/kg/time bid. According to the exposure, Compound (I) had 1-fold safety window in Beagles and 8-13-fold safety window in SD rats. According to the dose calculation, Compound (I) had 3-fold safety windows in both Beagle dogs and SD rats. The proposed and undetermined initial ascending dose of Compound (I) in the first-in-human trial was 15 mg. […] Therefore, according to the pre-clinical toxicological study data of Compound (I), the single ascending doses of phase I clinical trial to be carried out were 15 mg, 45 mg, 60 mg, 90 mg, 135 mg, 180 mg, 240 mg, 300 mg and 360 mg.

[2] = Rat effective dose for safety window calculation; assay type: in vivo

TYK2, sequence (P29597 whole entry, species assumed): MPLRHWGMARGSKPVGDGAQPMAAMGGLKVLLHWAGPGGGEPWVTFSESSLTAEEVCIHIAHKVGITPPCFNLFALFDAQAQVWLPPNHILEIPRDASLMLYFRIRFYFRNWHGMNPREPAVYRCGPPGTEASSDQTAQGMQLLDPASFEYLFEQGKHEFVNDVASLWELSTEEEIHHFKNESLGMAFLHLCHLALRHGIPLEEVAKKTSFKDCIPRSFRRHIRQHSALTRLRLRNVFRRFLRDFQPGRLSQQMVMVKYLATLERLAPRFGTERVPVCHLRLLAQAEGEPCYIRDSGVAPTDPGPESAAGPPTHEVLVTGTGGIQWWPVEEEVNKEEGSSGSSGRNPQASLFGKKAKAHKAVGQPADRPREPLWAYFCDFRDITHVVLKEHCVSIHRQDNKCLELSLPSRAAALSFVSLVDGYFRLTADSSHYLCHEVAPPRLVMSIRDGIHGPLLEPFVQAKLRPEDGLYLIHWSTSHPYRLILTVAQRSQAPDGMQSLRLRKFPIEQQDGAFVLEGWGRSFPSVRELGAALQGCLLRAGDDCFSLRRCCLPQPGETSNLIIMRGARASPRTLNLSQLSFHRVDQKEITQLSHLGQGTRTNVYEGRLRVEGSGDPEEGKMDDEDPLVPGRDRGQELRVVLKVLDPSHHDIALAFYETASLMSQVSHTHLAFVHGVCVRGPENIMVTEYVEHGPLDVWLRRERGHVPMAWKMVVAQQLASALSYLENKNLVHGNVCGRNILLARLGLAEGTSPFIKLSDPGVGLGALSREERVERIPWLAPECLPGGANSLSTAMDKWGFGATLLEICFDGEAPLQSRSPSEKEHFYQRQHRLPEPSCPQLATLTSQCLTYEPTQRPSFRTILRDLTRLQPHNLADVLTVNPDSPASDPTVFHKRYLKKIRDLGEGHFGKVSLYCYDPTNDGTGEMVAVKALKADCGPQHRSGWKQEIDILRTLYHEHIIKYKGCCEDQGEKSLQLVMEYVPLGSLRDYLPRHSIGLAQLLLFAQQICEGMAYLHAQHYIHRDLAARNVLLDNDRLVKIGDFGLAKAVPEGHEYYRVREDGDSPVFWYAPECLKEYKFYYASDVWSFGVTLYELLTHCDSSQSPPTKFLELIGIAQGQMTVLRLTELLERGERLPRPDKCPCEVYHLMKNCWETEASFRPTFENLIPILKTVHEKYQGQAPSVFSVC
JAK2, sequence (O60674 whole entry, species assumed): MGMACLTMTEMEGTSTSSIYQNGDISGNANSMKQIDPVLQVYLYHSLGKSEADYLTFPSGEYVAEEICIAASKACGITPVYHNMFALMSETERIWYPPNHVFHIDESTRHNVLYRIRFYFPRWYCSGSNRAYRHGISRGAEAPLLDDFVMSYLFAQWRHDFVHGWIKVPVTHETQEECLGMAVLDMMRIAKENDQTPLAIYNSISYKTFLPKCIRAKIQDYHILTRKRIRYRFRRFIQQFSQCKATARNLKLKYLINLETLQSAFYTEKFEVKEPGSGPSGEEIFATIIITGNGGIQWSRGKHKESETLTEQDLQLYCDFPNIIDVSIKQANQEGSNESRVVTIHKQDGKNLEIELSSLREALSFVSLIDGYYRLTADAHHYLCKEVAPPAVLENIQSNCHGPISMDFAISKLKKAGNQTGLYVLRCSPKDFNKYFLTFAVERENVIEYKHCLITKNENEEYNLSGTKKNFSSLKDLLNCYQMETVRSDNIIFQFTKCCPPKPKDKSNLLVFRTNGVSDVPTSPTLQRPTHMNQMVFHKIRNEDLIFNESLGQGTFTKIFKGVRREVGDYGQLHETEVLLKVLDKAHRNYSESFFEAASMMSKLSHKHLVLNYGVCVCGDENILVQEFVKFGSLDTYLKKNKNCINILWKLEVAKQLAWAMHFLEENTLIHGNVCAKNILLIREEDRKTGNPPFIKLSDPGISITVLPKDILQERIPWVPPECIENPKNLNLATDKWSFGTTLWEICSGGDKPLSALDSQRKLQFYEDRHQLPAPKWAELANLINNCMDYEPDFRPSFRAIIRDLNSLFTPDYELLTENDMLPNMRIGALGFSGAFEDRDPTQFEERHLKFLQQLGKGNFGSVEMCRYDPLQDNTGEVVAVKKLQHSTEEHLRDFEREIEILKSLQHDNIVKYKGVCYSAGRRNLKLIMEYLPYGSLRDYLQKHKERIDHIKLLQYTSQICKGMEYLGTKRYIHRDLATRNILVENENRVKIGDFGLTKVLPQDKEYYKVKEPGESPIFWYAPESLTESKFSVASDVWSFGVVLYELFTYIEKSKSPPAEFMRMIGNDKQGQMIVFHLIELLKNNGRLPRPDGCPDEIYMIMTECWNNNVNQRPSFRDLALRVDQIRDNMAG
JAK1, sequence (P23458 whole entry, species assumed): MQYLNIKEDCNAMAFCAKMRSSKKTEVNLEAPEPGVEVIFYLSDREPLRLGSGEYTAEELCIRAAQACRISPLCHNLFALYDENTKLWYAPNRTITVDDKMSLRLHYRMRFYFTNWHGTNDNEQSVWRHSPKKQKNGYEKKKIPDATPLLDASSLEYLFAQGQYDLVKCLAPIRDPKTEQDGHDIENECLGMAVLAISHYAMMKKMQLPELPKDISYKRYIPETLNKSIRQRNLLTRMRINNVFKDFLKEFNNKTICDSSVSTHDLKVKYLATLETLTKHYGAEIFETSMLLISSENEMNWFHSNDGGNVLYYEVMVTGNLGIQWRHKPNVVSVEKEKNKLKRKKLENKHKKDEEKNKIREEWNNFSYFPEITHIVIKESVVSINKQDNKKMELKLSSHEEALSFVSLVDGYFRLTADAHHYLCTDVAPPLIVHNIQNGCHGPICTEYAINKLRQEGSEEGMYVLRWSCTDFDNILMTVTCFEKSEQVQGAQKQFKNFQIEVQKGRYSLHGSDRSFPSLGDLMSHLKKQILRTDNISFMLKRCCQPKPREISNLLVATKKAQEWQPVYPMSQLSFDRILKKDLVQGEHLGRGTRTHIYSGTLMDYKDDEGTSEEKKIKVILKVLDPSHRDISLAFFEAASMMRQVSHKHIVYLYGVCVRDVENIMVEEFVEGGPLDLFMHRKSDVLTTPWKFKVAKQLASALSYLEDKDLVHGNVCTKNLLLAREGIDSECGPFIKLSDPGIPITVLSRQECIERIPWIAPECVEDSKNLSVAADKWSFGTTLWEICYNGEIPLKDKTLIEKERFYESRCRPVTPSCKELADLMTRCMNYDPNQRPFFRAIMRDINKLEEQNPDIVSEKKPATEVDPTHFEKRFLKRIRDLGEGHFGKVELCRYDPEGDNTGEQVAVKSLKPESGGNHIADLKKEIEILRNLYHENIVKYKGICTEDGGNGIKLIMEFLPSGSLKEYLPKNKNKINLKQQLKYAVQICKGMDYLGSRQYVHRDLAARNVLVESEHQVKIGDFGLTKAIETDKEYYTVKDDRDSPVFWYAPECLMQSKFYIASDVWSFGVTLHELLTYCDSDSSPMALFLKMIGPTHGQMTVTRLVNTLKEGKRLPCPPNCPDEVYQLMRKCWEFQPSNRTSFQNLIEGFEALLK

SMILES: NC(=O)c1cnc(Nc2ccc3c(c2)OC[C@H]2CN(S(=O)(=O)C4CC4)CCN32)nc1NC1CC1 [Compound (I), (R)-4-(cyclopropylamino)-2-((3-(cyclopropylsulfonyl)-1,2,3,4,4a,5-hexahydrobenzo[b]pyrazolo[1,2-d][1,4]oxazin-8-yl)amino)pyrimidine-5-arboxamide]
- IC50 (JAK1): 20 nM
- IC50 (JAK2): 3.92 nM
- IC50 (JAK3): 1.43 nM
- IC50 (SYK): 7.25 nM
- IC50 (TYK2): 0.82 nM
- Safety in phase I clinical trial [1]: no safety issues above Level 3
- Genotoxicity (Genotoxicity): no genotoxicity
- AUC ([2]; in vivo, rat effective dose 3 mg/kg/time BID): 4310 ng·h/mL
- Safety window, dose method ([2]; rat effective dose (reference)): 1 fold
- Effective dose for rats ([2]; rats): 3 mg/kg/time bid
